Drawing on BindingDB's records for doi:10.1016/s0960-894x(03)00136-7 (2003), this text covers IC50 for two compounds.

This experiment deals with Serine/threonine-protein phosphatase 2A catalytic subunit alpha (Homo sapiens) (UniProt P67775). The experiment can be described thus: Inhibitory activity against protein phosphatase (PP2A) using fluorescein diphosphate as substrate.
Sequence of Serine/threonine-protein phosphatase 2A catalytic subunit alpha (Homo sapiens) (P67775 whole entry, looked up): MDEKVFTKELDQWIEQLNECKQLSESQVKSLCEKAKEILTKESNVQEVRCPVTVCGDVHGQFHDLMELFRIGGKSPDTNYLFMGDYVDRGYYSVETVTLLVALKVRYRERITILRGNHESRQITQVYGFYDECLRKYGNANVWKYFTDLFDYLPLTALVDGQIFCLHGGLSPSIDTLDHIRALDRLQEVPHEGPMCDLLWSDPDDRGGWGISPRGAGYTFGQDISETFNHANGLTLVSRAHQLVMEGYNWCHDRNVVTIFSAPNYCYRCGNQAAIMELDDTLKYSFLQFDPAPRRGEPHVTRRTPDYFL

`C=C([C@@H](O)C[C@H](O)[C@@]1(C)CC[C@H](C(C)(C)O)O1)[C@H]1CC[C@H]2O[C@@H]([C@]3(C)CC[C@@H](Br)C(C)(C)O3)CC[C@]2(C)O1` came in with an IC50 of under 10 µM.
The result for `CC(C)(O)[C@H]1CC[C@](C)([C@@H](O)CC[C@](O)(CO)C2=CC[C@H]3O[C@@H]([C@]4(C)CC[C@@H](Br)C(C)(C)O4)CC[C@]3(C)O2)O1` reads under 10 µM.

Broadly, the IC50 is the concentration that inhibits the measured activity by half. Read a high IC50 as a need for much substance.
